Tested on: Campylobacter species pig isolates
Test: nalidixic acid and cephalothin antibiotic sensitivity and resistance testing of pig isolates
Type: cell-based, Campylobacter coli

Compound	antibiotic sensitivity/resistance (pig isolate 1-Group B)	antibiotic sensitivity/resistance (pig isolate 2-Group B)	antibiotic sensitivity/resistance (pig isolate 3-Group A)	antibiotic sensitivity/resistance (pig isolate 3-Group B)	antibiotic sensitivity/resistance (pig isolate 4-Group A)	antibiotic sensitivity/resistance (pig isolate 6-Group A)	antibiotic sensitivity/resistance (pig isolate 7-Group A)
CCn1cc(C(=O)O)c(=O)c2ccc(C)nc21 [NA, nalidixic acid]	S	S	R	S	S	S	S
CC(=O)OCC1=C(C(=O)O)N2C(=O)[C@@H](NC(=O)Cc3cccs3)[C@H]2SC1 [Cph, cephalothin]	S	R	R	R	S	R	R

— patent US20100074846A1, “Campylobacter Vaccines and Methods of use” (priority 2006, published 2010)
